Here are results for one compound from patent US20260137664A1, “THERAPEUTIC AGENT FOR INTRACTABLE LYMPHATIC DISEASE AND INTRACTABLE VASCULAR DISEASE” (NATIONAL UNIVERSITY CORPORATION TOKAI NATIONAL HIGHER …, priority 2022, published 2026).

A short description of this data set: Population pharmacokinetic (PPK) analysis, nonlinear mixed effects model, two-compartment model. Type of data set: in vivo, patients and healthy adults. The source says:
The memory unit 12 stores pre-constructed PK (pharmacokinetics) model information. Specifically, it stores a blood concentration calculation formula for the active ingredient sirolimus when the drug is repeatedly administered, a parameter calculation formula for calculating parameters corresponding to patient information, and pre-constructed estimated values of pharmacokinetic parameters. The blood concentration calculation formula is a formula that expresses the blood sirolimus concentration based on a two-compartment model. The parameters corresponding to patient information are parameters used in the blood concentration calculation formula, and are standard parameters for estimating the blood sirolimus concentration of patients who have the same patient information (also referred to as “patient background”). In this document, these are referred to as “standard PK parameters”.
Here, ka is the absorption rate constant (h−1), Cl/F is the clearance (L/h), V1/F is the volume of the first compartment (L), V2/F is the volume of the second compartment (L), and Q/F is the intercompartmental clearance […]. The values of these parameters are related to the patient's weight and age, the dosage form of the administered drug, and the presence or absence of concomitant use of a CYP3A4 inhibitor or CYP3A4 inducer. Di is the dose of the drug.
Each parameter in the blood concentration calculation formula is expressed as a function with the patient's weight and age, the dosage form of the drug, etc. as variables. This function corresponds to the parameter calculation formula for calculating the parameters corresponding to the patient. This parameter calculation formula is obtained in advance by population pharmacokinetic analysis using a nonlinear mixed effects model.
In formula (2), TVka is the typical value of the absorption rate constant ka, and is obtained in advance by population pharmacokinetic analysis. In this embodiment, the point estimate of TVKa is 0.235 (h−1), the relative error is 1.17%, and the 95% confidence interval is 0.229-0.240.
In formula (3), TVCl is a typical value of clearance Cl/F, and is obtained in advance by population pharmacokinetic analysis. In this embodiment, the point estimate of TVCl is 6.44 (L/h), the relative error is 6.04%, and the width of the 95% confidence interval is 5.72-7.25. WT is the patient's body weight. PMA (Post menstrual age) is the age after the last menstrual period (gestational age+postnatal age) and corresponds to the patient's age. e^ηCL represents inter-individual variation. When there is no actual measured value for the patient, ηCL is 0, and the inter-individual variation is 1. “Clinical trials assay” refers to a blood sample stored frozen, and in the case of a blood sample stored frozen, it is multiplied by 1.92. In the case of a blood sample stored refrigerated, it is multiplied by 1. “CYP3A4 fold change” is a coefficient that is determined according to the concomitant drug when there is a concomitant drug. The coefficient will be described later with reference to FIG. 9.
In formula (4), TVV1 is a typical value of the volume of the first compartment V1/F, and is obtained in advance by population pharmacokinetic analysis. In the embodiment, the point estimate of TVV1 is 176 (L), the relative error is 2.43%, and the width of the 95% confidence interval is 168-185. WT is the patient's body weight. eηV1 represents inter-individual variation. When there is no actual measured value for the patient, ηV1 is 0, and the inter-individual variation is 1. Depending on the information that can be obtained, it may be difficult to estimate the random effect of the patient on V1, and in such a case, the inter-individual variation for V1 may be set to 1 for all patients.
In formula (5), TVV2 is the typical value of the volume of the second compartment V2/F, and is determined in advance by population pharmacokinetic analysis. […]

Regarding `CO[C@H]1C[C@@H]2CC[C@@H](C)[C@@](O)(O2)C(=O)C(=O)N2CCCC[C@H]2C(=O)O[C@H]([C@H](C)C[C@@H]2CC[C@@H](O)[C@H](OC)C2)CC(=O)[C@H](C)/C=C(\C)[C@@H](O)[C@@H](OC)C(=O)[C@H](C)C[C@H](C)/C=C/C=C/C=C/1C` [sirolimus], the “TVka, typical value of the absorption rate constant ka (point estimate)” value (population pharmacokinetic analysis, relative error 1.17%, 95% confidence interval 0.229-0.240) is 0.235 h⁻¹. Moreover, the “TVV1, typical value of the volume of the first compartment V1/F (point estimate)” value (population pharmacokinetic analysis, relative error 2.43%, 95% confidence interval 168-185) is listed as 176 L. The TVQ, typical value of the intercompartmental clearance Q/F (point estimate) (population pharmacokinetic analysis, relative error 4.07%, 95% confidence interval 31.0-36.3) is 33.6 L/h. Also, for the setting “population pharmacokinetic analysis, relative error 6.04%, 95% confidence interval 5.72-7.25”, the “TVCl, typical value of clearance Cl/F (point estimate)” value was 6.44 L/h. Besides, the “TVV2, typical value of the volume of the second compartment V2/F (point estimate)” value (population pharmacokinetic analysis, relative error 13%, 95% confidence interval 218-362) is given as 281 L. Also, the “factor by which TVka is multiplied” value (when the drug is a granule (Granule formulation), formula (2)) was 4.26.
